# Reference: PubChem BioAssay (NCI)
#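 Briefly, cells in 96-well plates were exposed to five compound concentrations for 48 h, and endpoints were estimated by linear interpolation. GI50 = concentration required for 50% inhibition of growth. TGI marks complete inhibition of growth.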
# Test system: HOP-62 NSCLC
# Assay: growth of human tumour cells (NCI), 48 h
SMILES,GI50,TGI
COC(=O)c1c2c(c(C)[n+]([O-])c1C)C(=O)C=C(NCc1ccc(F)cc1)C2=O,1.38 µM,3.76 µM
CC(C)C1=Cc2ccc3c(c2C(=O)C1=O)CCCC3(C)C,–,37 µM
Nc1ncn([C@@H]2O[C@H](CO)[C@@H](O)[C@H]2O)c(=O)n1,0.49 µM,2.67 µM
CSc1nc(SC)c2c(C#N)[nH]nc2n1,–,> 100 µM
CC(=O)Nc1ccc(-c2csc(Nc3cccc(-c4csc(C)n4)c3)n2)cc1,3.02 µM,15 µM
COc1ccc(CCN(C)C2CCC(C#N)(c3ccc(OC)c(OC)c3)CC2)cc1OC (stereo unspecified),–,> 100 µM
C=CCC1(c2ccc(OC)cc2)C=CC(=O)CC1 (stereo unspecified),–,> 100 µM
CCOC(=O)c1nc2c(OC)nn(O)cc-2c1[N+](=O)[O-],–,> 100 µM
C/C(CC(=O)Nc1ccc(C)c(C)c1)=N\N(c1ccccc1)c1ccccc1,–,> 100 µM
COC(=O)/C(=N\NC(N)=S)C(C(=O)OC)C(=O)C(=O)Nc1ccc(C)cc1 (stereo unspecified),–,> 100 µM
O=C(OC1CCC(=C2SCCCS2)[C@H]1C1SCCCS1)c1ccccc1 (stereo partly specified),–,> 100 µM
O=C(/C(=C/c1ccc(Cl)cc1)c1ccccc1)c1ccccc1,–,57.5 µM
c1ccc2c(OCCSCCCCCCCCCCSCCOc3cccc4ccccc34)cccc2c1,–,> 100 µM
CN1CCC(=O)/C(=C/c2ccccc2)C1,–,40.2 µM

# Test system: IGROV1 ovarian
# Assay: growth of human tumour cells (NCI), 48 h
SMILES,GI50,TGI
CC1(C)OC2C(CO[Si](C)(C)C(C)(C)C)OC(n3c(I)c(C#C[Si](C)(C)C)c(=O)[nH]c3=O)C2O1 (stereo unspecified),7.87 µM,21.5 µM
CN(C)CC[C@H](CSc1ccccc1)Nc1ccc(S(=O)(=O)NC(=O)c2ccc(N3CCN(Cc4ccccc4-c4ccc(Cl)cc4)CC3)cc2)cc1[N+](=O)[O-],3.05 µM,> 51.6 µM
O=C(/C=C/c1ccc[nH]1)c1ccc(-n2ccc(C(F)(F)F)n2)cc1,> 100 µM,> 100 µM
O=C(c1ccco1)c1c(C(F)(F)F)nc2ccc(Cl)cc2[n+]1[O-],> 100 µM,> 100 µM
COc1ccc(-c2nnc3n(C)c(=O)c4ccccc4n23)cc1N,14.7 µM,> 100 µM
CN(C)C1CCN(C(=O)c2ccc(NC(=O)Nc3ccc(-c4nc(N5CCOCC5)c5cccn5n4)cc3)cc2)CC1,0.0302 µM,0.211 µM
COc1cc(N=Nc2ccc(O)c3ncccc23)c2ncccc2c1,3.67 µM,> 100 µM
CCOC(=O)N[C@H]1CCc2cc(OC)c(OC)c(OC)c2-c2ccc(SC)c(=O)cc21,–,> 100 µM
Cc1nc(Nc2cccnc2)sc1C(=O)/C=C/c1ccc(F)cc1,2.85 µM,> 100 µM
N=c1c2c(-c3ccccc3)c(-c3ccccc3)n(Cc3ccccc3)c2ncn1C1CCC(O)CC1 (stereo unspecified),0.0902 µM,4.49 µM
O=C(Nc1cccc(Cl)c1)C(=O)C(C(=O)c1ccc2ccccc2c1)C1OC(=O)c2ccccc21 (stereo unspecified),–,96.3 µM
COCC(OC)C(CC=C(C#N)C#N)OC (stereo unspecified),–,> 100 µM
NC1CCN(Cc2ccccc2)CC1,94.6 µM,> 100 µM
N#Cc1nn(-c2cc(=O)[nH]c3ccc(Cl)cc23)c(N)c1C#N,> 100 µM,> 100 µM
On1c(-c2ccccc2)c(-c2ccccc2N2CCCC2)c2ccccc21,–,> 100 µM
CCN1CCN(c2cc(C)c3cc(NC(=O)c4ccc(OC)c(OC)c4)ccc3n2)CC1,> 66.3 µM,> 100 µM
COC(=O)c1c2c(c(C)[n+]([O-])c1C)C(=O)C=C(NCc1ccc(F)cc1)C2=O,0.363 µM,1.61 µM
CC(C)C1=Cc2ccc3c(c2C(=O)C1=O)CCCC3(C)C,–,12.9 µM
CSc1nc(SC)c2c(C#N)[nH]nc2n1,–,> 100 µM
CC(=O)Nc1ccc(-c2csc(Nc3cccc(-c4csc(C)n4)c3)n2)cc1,3.79 µM,> 30.9 µM
COc1ccc(CCN(C)C2CCC(C#N)(c3ccc(OC)c(OC)c3)CC2)cc1OC (stereo unspecified),–,> 100 µM
C=CCC1(c2ccc(OC)cc2)C=CC(=O)CC1 (stereo unspecified),–,> 100 µM
CCOC(=O)c1nc2c(OC)nn(O)cc-2c1[N+](=O)[O-],–,> 100 µM
C/C(CC(=O)Nc1ccc(C)c(C)c1)=N\N(c1ccccc1)c1ccccc1,–,> 100 µM
COC(=O)/C(=N\NC(N)=S)C(C(=O)OC)C(=O)C(=O)Nc1ccc(C)cc1 (stereo unspecified),–,> 100 µM
